Test [1] addresses T1, Peptidoglycan-N-acetylglucosamine deacetylase (Streptococcus pneumoniae (strain ATCC BAA-255 / R6)) (UniProt Q8DP63).
T1 sequence (whole entry): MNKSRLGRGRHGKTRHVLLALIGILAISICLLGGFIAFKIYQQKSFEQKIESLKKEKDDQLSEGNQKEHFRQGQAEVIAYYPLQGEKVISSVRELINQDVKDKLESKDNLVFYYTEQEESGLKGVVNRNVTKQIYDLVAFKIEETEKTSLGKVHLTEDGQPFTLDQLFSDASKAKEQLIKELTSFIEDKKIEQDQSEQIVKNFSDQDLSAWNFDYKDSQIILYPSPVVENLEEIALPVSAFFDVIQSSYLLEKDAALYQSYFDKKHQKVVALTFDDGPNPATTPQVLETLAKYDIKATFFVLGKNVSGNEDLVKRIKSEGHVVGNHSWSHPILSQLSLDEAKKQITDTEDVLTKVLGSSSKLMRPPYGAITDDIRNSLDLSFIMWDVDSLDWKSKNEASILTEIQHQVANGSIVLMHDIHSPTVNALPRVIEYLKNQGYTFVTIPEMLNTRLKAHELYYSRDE
Kind of test: Inhibition of Streptococcus pneumoniae Pgda expressed in Escherichia coli BL21 (DE3) cells transformed with pET28bSpPgdA232-431 plasmid at 200 to 1200 uM using acetoxymethyl-4-methylumbelliferone as substrate measured at 5 min intervals over 60 mins in presence of 200 uM ZnCl2 by fluorescence assay.

In test [2] the target is T2, Poly-beta-1,6-N-acetyl-D-glucosamine N-deacetylase (Escherichia coli (strain K12), UniProt P75906).
T2 sequence (P75906 whole entry): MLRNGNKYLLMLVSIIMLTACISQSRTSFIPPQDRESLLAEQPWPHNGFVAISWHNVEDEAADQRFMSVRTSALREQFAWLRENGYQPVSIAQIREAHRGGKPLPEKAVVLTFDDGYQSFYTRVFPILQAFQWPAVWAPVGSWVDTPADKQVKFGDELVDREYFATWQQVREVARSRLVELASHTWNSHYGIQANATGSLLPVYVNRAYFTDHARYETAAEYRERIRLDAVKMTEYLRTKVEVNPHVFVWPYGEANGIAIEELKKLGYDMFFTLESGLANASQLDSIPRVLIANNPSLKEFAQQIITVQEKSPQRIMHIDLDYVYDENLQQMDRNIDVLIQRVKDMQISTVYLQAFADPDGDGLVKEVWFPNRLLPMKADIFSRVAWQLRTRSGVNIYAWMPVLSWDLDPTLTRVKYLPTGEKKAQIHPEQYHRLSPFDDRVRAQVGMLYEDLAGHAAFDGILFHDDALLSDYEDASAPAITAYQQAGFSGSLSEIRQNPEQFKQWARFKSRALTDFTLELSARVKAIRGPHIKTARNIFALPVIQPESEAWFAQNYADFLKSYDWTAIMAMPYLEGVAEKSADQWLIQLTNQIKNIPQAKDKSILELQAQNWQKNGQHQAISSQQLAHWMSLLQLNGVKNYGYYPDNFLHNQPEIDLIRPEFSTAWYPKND
The experiment in a line: Inhibition of Escherichia coli PgaB expressed in Escherichia coli BL21 (DE3) cells transformed with pET28 plasmid coding for PgaB42-655 using compound pre-incubated with 1Eq DTT and using acetoxymethyl-4-methylumbelliferone as substrate measured at 2 min intervals over 10 mins in presence of ZnCl2 by fluorescence assay.

Test [3] addresses T1, Peptidoglycan-N-acetylglucosamine deacetylase (Streptococcus pneumoniae (strain ATCC BAA-255 / R6)). Kind of test: Inhibition of Streptococcus pneumoniae Pgda expressed in Escherichia coli BL21 (DE3) cells transformed with pET28bSpPgdA232-431 plasmid at 200 to 1200 uM using acetoxymethyl-4-methylumbelliferone as substrate measured at 5 min intervals over 60 mins in presence of 6 uM ZnCl2 by fluorescence assay.

Test [4] has as its target T2, Poly-beta-1,6-N-acetyl-D-glucosamine N-deacetylase. The experiment in a line: Inhibition of Escherichia coli PgaB expressed in Escherichia coli BL21 (DE3) cells transformed with pET28 plasmid coding for PgaB42-655 using compound pre-incubated with 1Eq DTT and using acetoxymethyl-4-methylumbelliferone as substrate measured at 2 min intervals over 10 mins in presence of CoCl2 by fluorescence assay.

The target in test [5] is T3, Peptidoglycan-N-acetylglucosamine deacetylase (Streptococcus pneumoniae (strain ATCC BAA-255 / R6), UniProt Q8DP63).
T3 sequence (Q8DP63 whole entry): T1 sequence (whole entry)
The experiment in a line: Partial mixed inhibition of Streptococcus pneumoniae apo-Pgda using N,N',N\"-triacetyl chitotriose as substrate in presence of ZnCl2 by fluorescamine assay deacetylase assay based Dixon plot analysis.

In test [6] the target is T3, Peptidoglycan-N-acetylglucosamine deacetylase. The experiment in a line: Inhibition of Streptococcus pneumoniae Pgda expressed in Escherichia coli BL21 (DE3) cells transformed with pET28bSpPgdA232-431 plasmid using compound pre-incubated with 1Eq DTT and using acetoxymethyl-4-methylumbelliferone as substrate measured at 5 min intervals over 60 mins in presence of CoCl2 by fluorescence assay.

Test [7] deals with T1, Peptidoglycan-N-acetylglucosamine deacetylase (Streptococcus pneumoniae (strain ATCC BAA-255 / R6)). The experiment in a line: Substrate activity at Streptococcus pneumoniae Pgda at 1 mM in presence of CoCl2 or ZnCl2 by fluorescamine assay deacetylase assay.
The target is the same in test [8]. Kind of test: Inhibition of Streptococcus pneumoniae Pgda expressed in Escherichia coli BL21 (DE3) cells transformed with pET28bSpPgdA232-431 plasmid at 200 to 1200 uM using acetoxymethyl-4-methylumbelliferone as substrate measured at 5 min intervals over 60 mins in presence of 3 uM ZnCl2 by fluorescence assay.
Test [9] deals with T3, Peptidoglycan-N-acetylglucosamine deacetylase. The experiment in a line: Inhibition of Streptococcus pneumoniae Pgda expressed in Escherichia coli BL21 (DE3) cells transformed with pET28bSpPgdA232-431 plasmid using compound pre-incubated with 1Eq DTT and using acetoxymethyl-4-methylumbelliferone as substrate measured at 5 min intervals over 60 mins in presence of ZnCl2 by fluorescence assay.

The target of test [10] is T4, Poly-beta-1,6-N-acetyl-D-glucosamine N-deacetylase (Escherichia coli (strain K12)) (UniProt P75906).
T4 sequence (whole entry): T2 sequence (P75906 whole entry)
The experiment in a line: Substrate activity at Escherichia coli PgaB at 1 mM in presence of CoCl2 or ZnCl2 by fluorescamine assay deacetylase assay.

The target of test [11] is T3, Peptidoglycan-N-acetylglucosamine deacetylase. Kind of test: Inhibition of Streptococcus pneumoniae Pgda expressed in Escherichia coli BL21 (DE3) cells transformed with pET28bSpPgdA232-431 plasmid using acetoxymethyl-4-methylumbelliferone as substrate measured at 5 min intervals over 60 mins in presence of CoCl2 by fluorescence assay.
Test [12] concerns the target T4, Poly-beta-1,6-N-acetyl-D-glucosamine N-deacetylase (Escherichia coli (strain K12)). The experiment in a line: Substrate activity at Escherichia coli PgaB at 5 mM in presence of CoCl2 or ZnCl2 by fluorescamine assay deacetylase assay.
Test [13] concerns the target T1, Peptidoglycan-N-acetylglucosamine deacetylase (Streptococcus pneumoniae (strain ATCC BAA-255 / R6)). Kind of test: Substrate activity at Streptococcus pneumoniae Pgda at 5 mM in presence of CoCl2 or ZnCl2 by fluorescamine assay deacetylase assay.
Test [14] concerns the target T2, Poly-beta-1,6-N-acetyl-D-glucosamine N-deacetylase. Kind of test: Inhibition of Escherichia coli PgaB expressed in Escherichia coli BL21 (DE3) cells transformed with pET28 plasmid coding for PgaB42-655 using acetoxymethyl-4-methylumbelliferone as substrate measured at 2 min intervals over 10 mins in presence of CoCl2 by fluorescence assay.
The target of test [15] is T1, Peptidoglycan-N-acetylglucosamine deacetylase (Streptococcus pneumoniae (strain ATCC BAA-255 / R6)). The experiment in a line: Inhibition of Streptococcus pneumoniae Pgda expressed in Escherichia coli BL21 (DE3) cells transformed with pET28bSpPgdA232-431 plasmid at 5 mM using acetoxymethyl-4-methylumbelliferone as substrate measured at 5 min intervals over 60 mins in presence of CoCl2 by fluorescence assay.

For test [16] the target is unchanged. The experiment in a line: Inhibition of Streptococcus pneumoniae Pgda expressed in Escherichia coli BL21 (DE3) cells transformed with pET28bSpPgdA232-431 plasmid at 10 mM using acetoxymethyl-4-methylumbelliferone as substrate measured at 5 min intervals over 60 mins in presence of CoCl2 by fluorescence assay.
Test [17] addresses T4, Poly-beta-1,6-N-acetyl-D-glucosamine N-deacetylase (Escherichia coli (strain K12)). Kind of test: Inhibition of Escherichia coli PgaB expressed in Escherichia coli BL21 (DE3) cells transformed with pET28 plasmid coding for PgaB42-655 at 10 mM using acetoxymethyl-4-methylumbelliferone as substrate measured at 2 min intervals over 10 mins in presence of CoCl2 by fluorescence assay.

Structures are written as SMILES. Activity calls are given as the source filed them. No cut-off for these calls is given here.

On to `CC(=S)N[C@H]1[C@H](OCc2ccccc2)O[C@H](CO)[C@@H](O)[C@@H]1S`, for which the inhibition result in test [1] and in [3] was “Active” in each case. For the same compound, the IC50 in [2] was 0.14 mM; in [4], above 1 mM; in [6] it was above 1 mM; in test [9] it was 0.011 mM. Moreover, the Ki in [5] was determined as 0.0029 mM. In addition, the outcome in test [7] and in test [10] was inactive. In addition, in test [8], the inhibition result was “inactive”.
For `CS(=O)(=O)N[C@H]1[C@H](OCc2ccccc2)O[C@H](CO)[C@@H](O)[C@@H]1S`, the IC50 in test [2], in test [4], in test [6] and in test [9] was above 1 mM each time. The result in test [7] and in test [10] was inactive.
As for `CC(=O)N[C@H]1[C@H](OCc2ccccc2)O[C@H](CO)[C@@H](O)[C@@H]1O`, the IC50 was 11 mM in test [11] and above 20 mM in test [14]. The result in test [12] and in [13] was inactive.
In the case of `NS(=O)(=O)C[C@H]1[C@H](OCc2ccccc2)O[C@H](CO)[C@@H](O)[C@@H]1O`, the IC50 in test [11] and in test [14] was above 10 mM in each case.
In the case of `COP(=O)(O)C[C@H]1[C@H](OCc2ccccc2)O[C@H](CO)[C@@H](OCc2ccccc2)[C@@H]1O`, the 50% inhibitory concentration (IC50) in test [11] and in test [14] was above 5 mM in each case. For the same compound, the inhibition entry in test [15] was “inactive”.
As to `NS(=O)(=O)C[C@H]1[C@H](OCc2ccccc2)O[C@H](CO)[C@@H](OCc2ccccc2)[C@@H]1O`, the half-inhibitory concentration (IC50) in [11] and in test [14] was above 5 mM throughout.
As to `CC(=S)N[C@H]1[C@H](OCc2ccccc2)O[C@H](CO)[C@@H](O)[C@@H]1O`, the concentration for half-maximal inhibition (IC50) in test [11] and in test [14] was above 10 mM in each case. The result in test [12] and in test [13] was inactive.
As to `CC(=O)N[C@H]1[C@H](OCc2ccccc2)O[C@H](CO)[C@@H](O)[C@@H]1N=[N+]=[N-]`, the IC50 in [11] and in test [14] was above 5 mM throughout. Further, the result in test [7] and in test [10] was inactive.
As to `COP(=O)(O)C[C@H]1[C@H](OCc2ccccc2)O[C@H](CO)[C@@H](O)[C@@H]1O`, the IC50 in [11] is 4.9 mM; in [14], above 10 mM.
For `O[C@H](CS)[C@H](O)CS`, the inhibition entry in test [16] and in test [17] was “inactive” throughout.
Take `CC(=O)N[C@H]1[C@H](OCc2ccccc2)O[C@H](CO)[C@@H](O)[C@@H]1S`: the IC50 in [2] was 1.1 mM; in [4], above 8 mM; in test [6], above 8 mM; in [9], 5 mM. In addition, the outcome in test [12] and in [13] was inactive.
Take `CC(=O)N[C@H]1[C@H](OCc2ccccc2)O[C@H](CO)[C@@H](O)[C@@H]1N`: the IC50 in test [11] and in test [14] was above 10 mM each time. In addition, the outcome in [12] and in test [13] was inactive.
Turning to `COP(=O)(O)C[C@H]1[C@H](OCc2ccccc2)O[C@H](COCc2ccccc2)[C@@H](O)[C@@H]1O`, the 50% inhibitory concentration (IC50) in test [11] and in [14] was above 5 mM in each case. Further, in [15], the inhibition entry is “inactive”.

The values are drawn from ChEMBL document CHEMBL4261622, “Monosaccharide inhibitors targeting carbohydrate esterase family 4 de-N-acetylases” (Bioorg Med Chem, 2018).
